Measurements: ChEMBL document CHEMBL1201862, “PubChem BioAssay data set” (2004)
Activity calls are given as the source filed them.

Legend:
[1] = system: HT-1080; experiment: HT1080 cell viability loss – fluorescence readout (AID 620); type: functional, cell-based; conditions: Homo sapiens
[2] = alpha-synuclein stem-loop luciferase translation blockers – H4 neuroglioma cells, luminescence, confirmation (AID 1988); type: functional, cell-based
[3] = target: Luciferin 4-monooxygenase (Photinus pyralis, UniProt P08659); experiment: Counter Screen for Luciferase-based Assay Positives. [Related pubchem assays: 620, 618, 411 ]
Luciferin 4-monooxygenase, sequence (P08659 whole entry): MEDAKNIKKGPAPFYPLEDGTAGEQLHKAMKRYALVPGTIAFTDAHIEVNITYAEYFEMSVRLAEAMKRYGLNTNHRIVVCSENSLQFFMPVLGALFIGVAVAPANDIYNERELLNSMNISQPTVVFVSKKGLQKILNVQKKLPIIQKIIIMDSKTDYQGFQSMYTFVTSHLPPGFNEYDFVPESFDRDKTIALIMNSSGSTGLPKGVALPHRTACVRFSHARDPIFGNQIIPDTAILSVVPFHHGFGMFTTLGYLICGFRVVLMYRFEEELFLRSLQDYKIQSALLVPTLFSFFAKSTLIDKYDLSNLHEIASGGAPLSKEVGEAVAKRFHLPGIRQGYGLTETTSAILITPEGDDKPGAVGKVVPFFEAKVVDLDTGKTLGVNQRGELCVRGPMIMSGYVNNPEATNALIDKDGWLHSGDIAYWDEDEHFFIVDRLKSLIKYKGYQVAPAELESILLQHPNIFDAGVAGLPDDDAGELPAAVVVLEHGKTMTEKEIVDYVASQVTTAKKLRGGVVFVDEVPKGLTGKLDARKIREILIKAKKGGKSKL

[4] = Luminescence Cell-Based Dose Response HTS to Identify Inhibitors of 5'UTR Stem-Loop Driven Prion Protein mRNA Translation in H4 Neuroglioblastoma Cells. [Related pubchem assays: 1827 (Project Summary), 1813 (Primary HTS)]; type: functional
[5] = target: T1, Mannose-6-phosphate isomerase (Homo sapiens, UniProt P34949); experiment: MPI enzyme activity inhibition – biochemical, fluorescence intensity, coupled assay, primary screen (AID 1209)
T1 sequence (P34949 whole entry): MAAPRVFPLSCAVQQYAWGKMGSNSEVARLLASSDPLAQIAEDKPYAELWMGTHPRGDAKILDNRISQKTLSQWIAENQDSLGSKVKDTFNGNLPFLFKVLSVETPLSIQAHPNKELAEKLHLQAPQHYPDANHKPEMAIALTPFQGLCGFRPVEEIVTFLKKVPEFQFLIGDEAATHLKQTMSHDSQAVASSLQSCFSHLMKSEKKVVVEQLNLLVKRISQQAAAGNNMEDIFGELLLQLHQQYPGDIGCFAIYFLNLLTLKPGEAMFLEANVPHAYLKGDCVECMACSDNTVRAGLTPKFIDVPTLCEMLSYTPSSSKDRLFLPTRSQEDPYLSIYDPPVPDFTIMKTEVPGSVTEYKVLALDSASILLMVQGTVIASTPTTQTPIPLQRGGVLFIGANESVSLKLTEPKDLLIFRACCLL

[6] = target: T2, Heat shock 70 kDa protein 1A (Homo sapiens, UniProt P0DMV8); experiment: small molecules displacing fluorescent ligand from Hsp70 – biochemical, fluorescence polarization, primary screen (AID 583)
T2 sequence (P0DMV8 whole entry): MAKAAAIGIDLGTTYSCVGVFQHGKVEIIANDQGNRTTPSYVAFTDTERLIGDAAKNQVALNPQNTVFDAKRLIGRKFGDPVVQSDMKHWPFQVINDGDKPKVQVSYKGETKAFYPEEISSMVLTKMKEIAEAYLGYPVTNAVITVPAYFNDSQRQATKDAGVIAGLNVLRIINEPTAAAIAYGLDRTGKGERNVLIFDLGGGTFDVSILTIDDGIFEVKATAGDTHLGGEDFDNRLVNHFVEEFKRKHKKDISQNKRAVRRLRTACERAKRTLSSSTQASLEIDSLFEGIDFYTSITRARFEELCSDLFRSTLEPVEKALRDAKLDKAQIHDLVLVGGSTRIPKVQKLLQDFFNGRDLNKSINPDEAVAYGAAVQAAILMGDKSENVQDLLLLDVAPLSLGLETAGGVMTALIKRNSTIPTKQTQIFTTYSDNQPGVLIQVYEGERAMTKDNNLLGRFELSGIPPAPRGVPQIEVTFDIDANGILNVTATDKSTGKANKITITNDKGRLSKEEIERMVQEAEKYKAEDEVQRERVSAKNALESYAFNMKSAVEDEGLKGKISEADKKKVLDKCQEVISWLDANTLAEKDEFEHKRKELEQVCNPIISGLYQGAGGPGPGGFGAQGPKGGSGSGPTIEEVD

[7] = target: T2, Heat shock 70 kDa protein 1A; experiment: small-molecule inhibition of Hsp70 – biochemical, TR-FRET (AID 786)
[8] = target: Lysosomal acid glucosylceramidase (Homo sapiens, UniProt P04062); experiment: Dose response cell-based high throughput screening assay to identify enhancers of beta-glucosidase activity. [Related pubchem assays: 784 ]; type: functional
Lysosomal acid glucosylceramidase, sequence (P04062 whole entry): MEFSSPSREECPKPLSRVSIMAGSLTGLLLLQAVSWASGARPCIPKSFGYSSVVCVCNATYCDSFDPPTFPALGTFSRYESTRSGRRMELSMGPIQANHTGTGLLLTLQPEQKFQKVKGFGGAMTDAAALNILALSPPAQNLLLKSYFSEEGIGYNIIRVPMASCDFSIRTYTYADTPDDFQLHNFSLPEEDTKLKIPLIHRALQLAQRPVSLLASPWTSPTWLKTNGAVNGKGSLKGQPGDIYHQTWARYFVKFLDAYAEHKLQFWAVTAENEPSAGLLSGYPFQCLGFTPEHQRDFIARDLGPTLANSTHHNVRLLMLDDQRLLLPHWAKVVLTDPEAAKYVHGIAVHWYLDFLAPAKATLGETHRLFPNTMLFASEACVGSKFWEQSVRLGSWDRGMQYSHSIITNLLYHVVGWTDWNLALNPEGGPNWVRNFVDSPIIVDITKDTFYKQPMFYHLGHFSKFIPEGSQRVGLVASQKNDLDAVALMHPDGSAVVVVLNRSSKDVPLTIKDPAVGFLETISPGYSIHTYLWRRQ

[9] = viability of uninfected HEp-2 cells – cell-based, HTS, cytotoxicity control for RSV inhibitor project, dose response (AID 2410); type: functional; conditions: human respiratory syncytial virus
[10] = inhibitors of non-replicating M. tuberculosis, dose response, luciferase, dry powder (AID 651619); type: functional; conditions: Mycobacterium tuberculosis
[11] = inhibitors of non-replicating M. tuberculosis, dose response, luciferase, dry powder (AID 651620); type: functional; conditions: Mycobacterium tuberculosis
[12] = target: FAD-linked sulfhydryl oxidase ALR (Homo sapiens, UniProt P55789); experiment: ALR-catalysed DTT oxidation blockers – biochemical, H2O2 detection, luminescence, cherry-pick, dose response (AID 493248)
FAD-linked sulfhydryl oxidase ALR, sequence (P55789 whole entry): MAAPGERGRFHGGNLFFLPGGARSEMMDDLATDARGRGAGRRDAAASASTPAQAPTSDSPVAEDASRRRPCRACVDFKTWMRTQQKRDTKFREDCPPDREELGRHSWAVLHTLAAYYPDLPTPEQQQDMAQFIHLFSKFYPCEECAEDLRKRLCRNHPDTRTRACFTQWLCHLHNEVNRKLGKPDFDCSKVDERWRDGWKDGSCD

[13] = system: INS1; experiment: INS-1E survival protection against cytokine death – cell-based, luminescence, retest, dose response (AID 449756); type: functional; conditions: Rattus norvegicus;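 note: cell death triggered by IL-1 beta plus TNF-alpha plus IFN-gamma mixture; protective hits raise ATP signal compared with cytokine alone wells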
[14] = target: Protein Rev (Human immunodeficiency virus type 1 group M subtype B (isolate WMJ22)(HIV-1), UniProt P05866); experiment: inhibitors of Rev protein–RRE RNA complex – biochemical, protein-RNA interaction, dose response (AID 842); parameters: species or system Human immunodeficiency virus 1
Protein Rev, sequence (P05866 whole entry): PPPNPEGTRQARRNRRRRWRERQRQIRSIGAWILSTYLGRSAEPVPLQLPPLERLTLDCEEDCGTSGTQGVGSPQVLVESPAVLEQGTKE

[15] = MIN6 cell viability loss – mouse insulinoma, cytotoxicity control, dose response (AID 2122); type: functional;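 note: confirmatory high-throughput counterscreen run to flag cytotoxic compounds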
[16] = decrease of insulin promoter-GFP reporter – imaging, high-content screening, mouse beta cells (AID 1628); type: functional; conditions: MIN6
[17] = target: T3, Estrogen receptor beta (Homo sapiens, UniProt Q92731); experiment: blockers of SRC-3 recruitment to ERβ – biochemical, ELISA, streptavidin-HRP readout, orthogonal assay, confirmation (AID 1060)
T3 sequence (Q92731 whole entry): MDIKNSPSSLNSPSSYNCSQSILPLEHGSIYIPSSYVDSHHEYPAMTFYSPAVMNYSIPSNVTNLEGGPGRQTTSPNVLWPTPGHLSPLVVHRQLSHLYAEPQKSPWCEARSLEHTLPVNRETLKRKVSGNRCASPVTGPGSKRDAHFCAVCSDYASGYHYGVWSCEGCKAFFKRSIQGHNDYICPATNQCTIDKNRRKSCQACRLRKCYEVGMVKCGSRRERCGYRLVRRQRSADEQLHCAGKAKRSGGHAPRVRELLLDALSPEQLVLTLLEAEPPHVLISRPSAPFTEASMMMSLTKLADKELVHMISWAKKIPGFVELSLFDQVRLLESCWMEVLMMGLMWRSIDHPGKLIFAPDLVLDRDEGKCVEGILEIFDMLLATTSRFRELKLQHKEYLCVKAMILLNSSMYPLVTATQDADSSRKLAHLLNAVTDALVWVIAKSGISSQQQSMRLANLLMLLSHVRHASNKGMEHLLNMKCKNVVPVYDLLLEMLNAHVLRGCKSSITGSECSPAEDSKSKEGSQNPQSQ

[18] = target: T3, Estrogen receptor beta
[19] = target: T4, Estrogen receptor (Homo sapiens, UniProt P03372);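 note: potency for inhibiting coactivator peptide recruitment to the receptor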
T4 sequence (P03372 whole entry): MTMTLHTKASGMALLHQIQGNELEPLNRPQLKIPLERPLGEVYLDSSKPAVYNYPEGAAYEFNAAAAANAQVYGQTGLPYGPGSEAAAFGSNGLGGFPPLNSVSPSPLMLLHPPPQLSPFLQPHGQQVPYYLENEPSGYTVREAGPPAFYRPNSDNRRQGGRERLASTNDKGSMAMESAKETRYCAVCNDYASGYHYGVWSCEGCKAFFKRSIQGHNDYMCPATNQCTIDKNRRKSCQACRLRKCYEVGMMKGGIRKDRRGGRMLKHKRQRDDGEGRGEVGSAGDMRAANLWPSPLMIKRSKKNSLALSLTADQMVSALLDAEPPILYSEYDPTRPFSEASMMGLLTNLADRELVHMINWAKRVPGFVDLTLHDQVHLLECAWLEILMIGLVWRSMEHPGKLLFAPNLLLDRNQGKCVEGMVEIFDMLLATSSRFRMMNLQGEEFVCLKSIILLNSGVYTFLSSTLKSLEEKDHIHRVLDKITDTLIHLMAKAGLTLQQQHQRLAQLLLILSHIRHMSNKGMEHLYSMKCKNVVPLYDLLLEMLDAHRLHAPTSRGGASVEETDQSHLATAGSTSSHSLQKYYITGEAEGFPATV

[20] = cells
[21] = system: Vero; experiment: cells; type: functional, cell-based; conditions: Chlorocebus sabaeus

SMILES: Cc1csc(NC(=O)C2COc3ccccc3O2)n1 (stereo unspecified)
- EC50 [1]: > 50 µM (not active)
- EC50 [2]: 7.32 µM (active)
- EC50 [3]: 0.56 µM (active)
- EC50 [4]: 10.7 µM (inconclusive)

SMILES: COc1ccccc1N1C(=O)CC(Sc2n[nH]c(-c3cccc(C)c3)n2)C1=O (stereo unspecified)
- IC50 [5]: 48.1 µM (active)

SMILES: CCOC(=O)CNC(=O)CNC(=O)Cn1ccc2ccccc2c1=O
- IC50 [6]: > 100 µM (not active)
- IC50 [7]: > 100 µM (not active)

SMILES: O=c1cccc2n1CC1CC2CN(Cc2cccc(Cl)c2Cl)C1 (stereo unspecified)
- EC50 [8]: > 50 µM (not active)
- CC50 [9]: 23.1 µM (active)

SMILES: Fc1ccc(CSc2nnc(-c3cccnc3)o2)cc1
- IC90 [10]: 1 µM (active)
- IC90 [11]: 1 µM (active)

SMILES: C[n+]1c2n(c3ccccc31)N=C(c1ccc(Cl)cc1)CS2
- AC50 [12]: 0.425 µM (active)
- AC50 [13]: 4.54 µM (active)
- IC50 [14]: > 79.4 µM (not active)
- IC50 [15]: 1.49 µM (active)
- IC50 [16]: 2.51 µM (active)

SMILES: CC12CCCCC1(O)[N+](=O)C1=C(CCCC1)N2[O-] (stereo unspecified)
- IC50 [17]: 2.85 µM (not active)
- IC50 [18]: 10.9 µM (active)

SMILES: CCn1nccc1C(=O)Nc1ccc(Cl)cn1
- IC50 [6]: > 100 µM (not active)
- IC50 [7]: > 100 µM (not active)

SMILES: CCOc1ccc(NC2=NC(=O)S/C2=C\c2ccc(OC)cc2)cc1
- IC50 [17]: 99.9 µM (not active)
- IC50 [19]: 18.8 µM (active)
- IC50 [18]: > 50 µM (not active)

SMILES: Nc1ccc(C(=O)OCc2nc3cc4ccccc4cc3[nH]2)cc1
- IC50 [20]: 23.6 µM (active)
- IC50 [21]: 3.67 µM (active)
- CC50 [9]: 36.6 µM (active)
